Experimental findings from publication PMC2754381 (Biochemistry, 2009) are described below.

This test deals with MtOMPDC (wildtype OMPDC from Methanothermobacter thermautotrophicus) (Methanothermobacter thermautotrophicus, UniProt O26232). Description: OMP decarboxylation followed at […] nm. Format: biochemical.
Sequence of MtOMPDC (wildtype OMPDC from Methanothermobacter thermautotrophicus) (O26232 whole entry): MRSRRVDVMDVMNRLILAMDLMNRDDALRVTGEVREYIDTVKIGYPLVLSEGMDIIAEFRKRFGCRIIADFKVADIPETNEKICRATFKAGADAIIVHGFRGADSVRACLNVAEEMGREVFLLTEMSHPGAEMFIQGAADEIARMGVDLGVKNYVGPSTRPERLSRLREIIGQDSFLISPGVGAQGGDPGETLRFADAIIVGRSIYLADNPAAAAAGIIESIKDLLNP

Regarding `O=c1ccn([C@@H]2O[C@H](COP(=O)(O)O)[C@@H](O)[C@H]2O)c(=O)[nH]1` [UMP, uridine 5′-monophosphate], the inhibitory constant (Ki) was about 100 µM.
